This note sets out measurements from ChEMBL document CHEMBL1145662, “Catharanthus alkaloids, XXXVIII. Confirming structural evidence and antineoplastic activity of the bisindole alkaloids leurosine-N'b-oxide (pleurosine), roseadine and vindolicine from Catharanthus roseus” (J Nat Prod, 1983).

Data set [1] relates to CX-1. Put plainly: Antitumor activity against human CX-1 cells xenografted in Swiss nu/nu athymic mouse at 160 mg/kg on 4th,8th,12th and 16th day relative to control. Format: functional.
Data set [2] deals with P388. Put plainly: Antitumor activity against mouse P388 cells xenografted in CD2F1 mouse at 12.5 mg/kg for 1 to 9 days relative to control. It is filed as functional.
The test system of data set [3] is B16. Put plainly: Antitumor activity against mouse B16 cells xenografted in B6C3F1 mouse at 5 mg/kg for 1 to 9 days relative to control. Format: functional.
In a further data set the test system is Mus musculus. Put plainly: Toxicity in mouse P388 cells xenografted in CD2F1 mouse at 20 mg/kg. Format: organism-based. The arrangement: dose 20 mg/kg. As to conditions: in vivo.
Data set [4] concerns MC-38. Put plainly: Antitumor activity against mouse Colon 38 cells xenografted in Swiss mouse at 5 mg/kg for 1 to 2 days relative to control. It is filed as functional.
Data set [5] concerns P388. Put plainly: Antitumor activity against mouse P388 cells xenografted in CD2F1 mouse at 32 mg/kg after 1 day relative to control. Format: functional.
Data set [6] relates to CX-1. Put plainly: Antitumor activity against human CX-1 cells xenografted in Swiss nu/nu athymic mouse at 80 mg/kg on 4th,8th,12th and 16th day relative to control. It is filed as functional. In general terms: In xenograft studies the graft and the host belong to different species.
Data set [7] deals with P388. Put plainly: Antitumor activity against mouse P388 cells xenografted in CD2F1 mouse at 6.25 mg/kg on 3rd, 6th and 9th day relative to control. Format: functional.
Data set [8] has as its system L1210. Put plainly: Antitumor activity against mouse L1210 cells xenografted in CD2F1 mouse at 20 mg/kg for 1 to 9 days relative to control. Format: functional.
Data set [9] has as its system P388. Put plainly: Antitumor activity against mouse P388 cells xenografted in CD2F1 mouse at 25 mg/kg on 3rd, 6th and 9th day relative to control. It is filed as functional.
The test system of data set [10] is P388. Put plainly: Antitumor activity against mouse P388 cells xenografted in CD2F1 mouse at 8 mg/kg after 1 day relative to control. Format: functional.
Data set [11] concerns CX-1. Put plainly: Antitumor activity against human CX-1 cells xenografted in Swiss nu/nu athymic mouse at 40 mg/kg on 4th,8th,12th and 16th day relative to control. Format: functional.
Data set [12] deals with P388. Put plainly: Antitumor activity against mouse P388 cells xenografted in CD2F1 mouse at 25 mg/kg for 1 to 9 days relative to control. Format: functional.
In data set [13] the test system is MC-38. Put plainly: Antitumor activity against mouse Colon 38 cells xenografted in Swiss mouse at 10 mg/kg for 1 to 2 days relative to control. Format: functional.
The subject of data set [14] is P388. Put plainly: Antitumor activity against mouse P388 cells xenografted in CD2F1 mouse at 6.25 mg/kg for 1 to 9 days relative to control. It is filed as functional.
Data set [15] has as its system L1210. Put plainly: Antitumor activity against mouse L1210 cells xenografted in CD2F1 mouse at 10 mg/kg for 1 to 9 days relative to control. It is filed as functional.
In data set [16] the test system is P388. Put plainly: Antitumor activity against mouse P388 cells xenografted in CD2F1 mouse at 12.5 mg/kg on 3rd, 6th and 9th day relative to control. Format: functional.
For data set [17], the system named is B16. Put plainly: Antitumor activity against mouse B16 cells xenografted in B6C3F1 mouse at 2.5 mg/kg for 1 to 9 days relative to control. Format: functional.
Data set [18] has as its system L1210. Put plainly: Antitumor activity against mouse L1210 cells xenografted in CD2F1 mouse at 5 mg/kg for 1 to 9 days relative to control. It is filed as functional.
Data set [19] concerns P388. Put plainly: Antitumor activity against mouse P388 cells xenografted in CD2F1 mouse at 16 mg/kg after 1 day relative to control. It is filed as functional.
The subject of data set [20] is B16. Put plainly: Antitumor activity against mouse B16 cells xenografted in B6C3F1 mouse at 10 mg/kg for 1 to 9 days relative to control. It is filed as functional.
In data set [21] the test system is CX-1. Put plainly: Antitumor activity against human CX-1 cells xenografted in Swiss nu/nu athymic mouse at 20 mg/kg on 4th,8th,12th and 16th day relative to control. It is filed as functional.
Data set [22] deals with P388. Put plainly: Antitumor activity against mouse P388 cells xenografted in CD2F1 mouse at 4 mg/kg after 1 day relative to control. It is filed as functional.
Data set [23] concerns MC-38. Put plainly: Antitumor activity against mouse Colon 38 cells xenografted in Swiss mouse at 20 mg/kg for 1 to 2 days relative to control. Format: functional.
Data set [24] has as its system P388. Put plainly: Antitumor activity against mouse P388 cells xenografted in CD2F1 mouse at 2 mg/kg relative to control. It is filed as functional.
Data set [25] deals with P388. Put plainly: Antitumor activity against mouse P388 cells xenografted in CD2F1 mouse at 1 mg/kg relative to control. It is filed as functional.
Data set [26] relates to B16. Put plainly: Antitumor activity against mouse B16 cells xenografted in B6C3F1 mouse at 0.5 mg/kg relative to control. It is filed as functional.

For `CC[C@@]12C[N+]3([O-])CCc4c([nH]c5ccccc45)[C@@](C(=O)OC)(c4cc5c(cc4OC)N(C)[C@H]4[C@@](O)(C(=O)OC)[C@H](OC(C)=O)[C@]6(CC)C=CCN7CC[C@]54[C@@H]76)C[C@@H](C[C@@H]1O2)C3`, the T/C is given as 71% in the data set on CX-1 [1]; 163% with P388 [2]; 261% with B16 [3]; 84% with MC-38 [4]; 140% in the data set with P388 [5]; 85% with CX-1 [6]. The T/C in the data set with P388 [7] is reported as 168%; with L1210 [8], 112%; in the data set with P388 [9] it was 181%; in the data set on P388 [10], 161%; in the data set with CX-1 [11], 60%; with P388 [12], 181%. Besides, the T/C is given as 108% in the data set on MC-38 [13]; 154% in the data set on P388 [14]; 133% in the data set on L1210 [15]; 177% in the data set on P388 [16]; 189% in the data set on B16 [17]; 101% in the data set with L1210 [18]. Besides, the T/C with P388 [19] is 193%; in the data set with B16 [20], 309%; in the data set on CX-1 [21] it was 81%; in the data set with P388 [22], 142%; in the data set on MC-38 [23] it was 82%. For the same compound, the Activity result with Mus musculus was “Toxic”.

As to `CC[C@]1(O)CN2CCc3c([nH]c4ccccc34)[C@@H]1[C@@H](/C=C(\C(=O)OC)c1cc3c(cc1OC)N(C)C1[C@]34CCN3CC=C[C@](CC)(C34)[C@@H](OC(C)=O)[C@]1(O)C(=O)OC)C2` (some centres not stated) [ROSEADINE], the T/C with P388 [24] amounted to 176%.

`CC[C@@H]1C[C@H]2CN(CCc3c([nH]c4ccccc34)[C@@](C(=O)OC)(c3cc4c(cc3OC)N(C)[C@H]3[C@@](O)(C(=O)OC)[C@H](OC(C)=O)[C@]5(CC)C=CCN6CC[C@]43[C@@H]65)C2)C1` [ROSEAMINE] returned a T/C with P388 [25] of 161%.

Compound `CC[C@]1(O)C[C@@H]2CN(CCc3c([nH]c4ccccc34)[C@@](C(=O)OC)(c3cc4c(cc3OC)N(C)[C@H]3[C@@](O)(C(=O)OC)[C@H](OC(C)=O)[C@]5(CC)C=CCN6CC[C@]43[C@@H]65)C2)C1` [VINBLASTINE] had a T/C in the data set with B16 [26] of 309%.

As a reminder, the T/C is the result in the treated group divided by that in the control group, in per cent.
